Reference: ChEMBL document CHEMBL1201862, “PubChem BioAssay data set” (2004)
Activity calls are given as the source filed them.

Columns and labels:
[1] = target: Genome polyprotein (dengue virus type 2, UniProt P29990); assay: Dengue-2 NS5 methyltransferase inhibitors, primary screen, biochemical, confirmation dose response (AID 588689); assay type: functional
[2] = target: Heat shock protein HSP 90-alpha (Homo sapiens, UniProt P07900); assay type: functional, organism-based
[3] = target: T1, Microphthalmia-associated transcription factor (Homo sapiens, UniProt O75030); assay: TRPM1 promoter luciferase signal decrease, dose response, MITF inhibitor project, cell-based, SK-MEL-5, cherry-picked, set 3 (AID 493073); assay type: functional
T1 sequence (O75030 whole entry): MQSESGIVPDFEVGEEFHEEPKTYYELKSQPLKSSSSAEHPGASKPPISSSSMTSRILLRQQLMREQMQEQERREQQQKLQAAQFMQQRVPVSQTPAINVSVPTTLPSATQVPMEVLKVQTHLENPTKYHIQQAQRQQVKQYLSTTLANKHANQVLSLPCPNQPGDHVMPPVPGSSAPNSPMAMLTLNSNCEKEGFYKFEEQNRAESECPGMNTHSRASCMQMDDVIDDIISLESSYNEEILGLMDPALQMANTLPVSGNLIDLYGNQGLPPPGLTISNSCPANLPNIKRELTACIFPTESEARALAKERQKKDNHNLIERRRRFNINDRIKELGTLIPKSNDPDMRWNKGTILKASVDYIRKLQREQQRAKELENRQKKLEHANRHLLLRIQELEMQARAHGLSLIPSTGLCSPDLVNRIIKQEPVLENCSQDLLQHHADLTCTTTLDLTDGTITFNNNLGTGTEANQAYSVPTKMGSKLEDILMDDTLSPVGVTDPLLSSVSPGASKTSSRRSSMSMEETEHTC

[4] = Luminescence Cell-Based Dose Confirmation HTS to Identify Inhibitors of Polyadenylation.; assay type: functional
[5] = polyadenylation inhibitors in yeast reporter, dose response, luminescence, S. cerevisiae SKY197-pL101 (AID 2525); assay type: functional, cell-based
[6] = target: Intestinal-type alkaline phosphatase (Homo sapiens, UniProt P09923); assay: Dose Response confirmation of uHTS hits from a small molecule inhibitors of human intestinal alkaline phosphatase via a luminescent assay. [Related pubchem assays (depositor defined):AID2544, AID2574]; assay type: functional
[7] = Luminescence Cell-Based Dose Retest to Confirm Inhibitors of Cancer Stem Cells. [Related pubchem assays (depositor defined):AID2717, AID2721]; assay type: functional; conditions: Homo sapiens
[8] = target: T2, Dual specificity protein phosphatase 6 (Rattus norvegicus, UniProt Q64346); assay type: functional
T2 sequence (Q64346 whole entry): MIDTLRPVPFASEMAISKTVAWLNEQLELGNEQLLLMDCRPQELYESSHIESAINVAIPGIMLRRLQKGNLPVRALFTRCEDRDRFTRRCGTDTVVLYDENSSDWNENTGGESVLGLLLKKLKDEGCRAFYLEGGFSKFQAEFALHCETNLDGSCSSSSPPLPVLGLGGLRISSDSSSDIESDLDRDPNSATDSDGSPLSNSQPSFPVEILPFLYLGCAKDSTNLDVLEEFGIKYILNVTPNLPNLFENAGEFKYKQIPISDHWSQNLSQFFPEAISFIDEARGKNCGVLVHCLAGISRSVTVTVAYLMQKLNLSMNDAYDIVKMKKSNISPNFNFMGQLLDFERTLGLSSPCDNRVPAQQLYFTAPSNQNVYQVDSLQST

[9] = target: T2, Dual specificity protein phosphatase 6
[10] = target: T3, Tyrosine-protein phosphatase non-receptor type 7 (Homo sapiens, UniProt P35236); assay type: functional
T3 sequence (P35236 whole entry): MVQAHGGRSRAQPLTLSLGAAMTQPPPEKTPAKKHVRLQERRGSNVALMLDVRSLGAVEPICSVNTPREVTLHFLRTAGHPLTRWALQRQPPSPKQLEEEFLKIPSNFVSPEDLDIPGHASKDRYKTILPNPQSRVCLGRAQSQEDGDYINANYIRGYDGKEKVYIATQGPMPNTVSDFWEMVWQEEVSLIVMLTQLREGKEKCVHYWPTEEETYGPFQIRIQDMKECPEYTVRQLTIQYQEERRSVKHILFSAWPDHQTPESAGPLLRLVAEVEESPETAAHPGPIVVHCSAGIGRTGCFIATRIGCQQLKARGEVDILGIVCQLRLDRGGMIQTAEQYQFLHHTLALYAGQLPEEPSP

[11] = target: Glyceraldehyde-3-phosphate dehydrogenase (Homo sapiens, UniProt P04406)
[12] = target: Neurotensin receptor type 1 (Homo sapiens, UniProt P30989); assay type: functional;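 further: Image-based confirmatory dose-response assay measuring agonist activity at NTR1; NTR1-expressing U2OS osteosarcoma cells imaged for beta-arrestin GFP spot formation; agonist potency where compounds increase beta-arrestin recruitment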
[13] = HEK293 cell cytotoxicity, dose response, cytotoxicity control, plate reader, cherry-picked samples (AID 743446); assay type: functional, cell-based
[14] = LGR2 antagonists, dose response, cell-based, HEK293, CRE-luciferase reporter, cherry pick, set 2 (AID 743343); assay type: functional;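 further: transfected cells were stimulated with diluted bursicon conditioned medium after compound addition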
[15] = A549 cell cytotoxicity, dose response, cytotoxicity control, plate reader, cherry-pick, antagonist series (AID 743412); assay type: functional, cell-based
[16] = HepG2 cell cytotoxicity, dose response, cytotoxicity control, plate reader, cherry-pick, antagonist series (AID 743416); assay type: functional, cell-based
[17] = system: Streptococcus; assay: Luminescence Microorganism-Based Dose Response Follow up to Identify Compounds Cytotoxic to Streptococcus. [Related pubchem assays: 1677 (Project Summary), 1915, 1914, 1902 (Retest at Dose), 1900 (Counter Screen), 1662 (Primary HTS)]; assay type: functional, organism-based
[18] = system: Streptococcus; assay: Group A Streptococcus viability loss, dose response, counter-screen for streptokinase expression inhibitor project, luminescence, BacTiterGlo (AID 1915); assay type: functional, organism-based;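 further: potency for reduction of bacterial viability or growth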
[19] = target: T4, Streptokinase A (Streptococcus pyogenes serotype M1, UniProt P10520); assay: S. pyogenes streptokinase expression inhibitors, potency, dose response, plasminogen activation absorbance, OD405 (AID 1914); assay type: functional, Streptococcus pyogenes M1 GAS;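 further: secreted streptokinase activity via plasminogen activation per viability signal from cell pellet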
T4 sequence (P10520 whole entry): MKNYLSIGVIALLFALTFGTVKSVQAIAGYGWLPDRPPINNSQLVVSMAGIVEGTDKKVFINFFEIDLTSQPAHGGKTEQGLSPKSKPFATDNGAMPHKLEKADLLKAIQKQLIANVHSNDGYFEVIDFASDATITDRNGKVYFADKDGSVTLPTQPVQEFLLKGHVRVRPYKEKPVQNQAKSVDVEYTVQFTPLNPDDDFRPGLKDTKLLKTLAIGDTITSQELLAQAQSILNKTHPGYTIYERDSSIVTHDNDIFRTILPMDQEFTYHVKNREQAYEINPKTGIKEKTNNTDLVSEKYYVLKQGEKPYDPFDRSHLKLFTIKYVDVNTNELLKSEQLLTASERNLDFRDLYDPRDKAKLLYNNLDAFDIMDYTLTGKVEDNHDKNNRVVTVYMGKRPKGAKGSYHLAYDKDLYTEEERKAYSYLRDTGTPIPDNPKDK

[20] = system: Streptococcus sp. 'group A'; assay: growth inhibition of control SK(-) GAS strain, dose response, counter-screen for streptokinase expression inhibitor project, luminescence, kanamycin, BacTiterGlo, confirmation (AID 1900); assay type: functional, organism-based
[21] = target: Melanin-concentrating hormone receptor 1 (Homo sapiens, UniProt Q99705); assay: Fluorescence-based counterscreen for antagonists of the G-protein coupled receptor 7 (GPR7): cell-based high throughput dose response assay to identify antagonists of the melanin-concentrating hormone receptor 1 (MCHR1).; assay type: functional
Melanin-concentrating hormone receptor 1, sequence (Q99705 whole entry): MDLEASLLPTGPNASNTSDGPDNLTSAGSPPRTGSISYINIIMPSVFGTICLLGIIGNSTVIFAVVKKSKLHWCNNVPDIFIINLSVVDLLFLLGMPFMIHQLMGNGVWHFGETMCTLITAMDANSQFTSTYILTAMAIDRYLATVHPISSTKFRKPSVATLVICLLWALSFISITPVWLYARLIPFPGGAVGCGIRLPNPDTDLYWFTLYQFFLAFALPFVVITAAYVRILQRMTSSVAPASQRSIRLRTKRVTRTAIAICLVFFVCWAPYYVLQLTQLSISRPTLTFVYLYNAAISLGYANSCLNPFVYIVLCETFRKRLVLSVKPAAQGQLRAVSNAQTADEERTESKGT

Glyceraldehyde-3-phosphate dehydrogenase, sequence (P04406 whole entry): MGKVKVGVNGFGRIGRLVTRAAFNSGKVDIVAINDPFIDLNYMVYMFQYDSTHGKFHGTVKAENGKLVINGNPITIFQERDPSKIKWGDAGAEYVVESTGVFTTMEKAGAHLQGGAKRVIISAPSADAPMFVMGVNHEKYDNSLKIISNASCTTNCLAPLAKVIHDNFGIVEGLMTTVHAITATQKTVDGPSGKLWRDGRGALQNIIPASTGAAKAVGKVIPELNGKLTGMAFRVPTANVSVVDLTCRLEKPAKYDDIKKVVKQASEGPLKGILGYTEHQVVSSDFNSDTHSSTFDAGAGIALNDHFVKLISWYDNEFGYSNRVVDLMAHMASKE
Genome polyprotein, sequence (P29990 2492-3391 limits assumed): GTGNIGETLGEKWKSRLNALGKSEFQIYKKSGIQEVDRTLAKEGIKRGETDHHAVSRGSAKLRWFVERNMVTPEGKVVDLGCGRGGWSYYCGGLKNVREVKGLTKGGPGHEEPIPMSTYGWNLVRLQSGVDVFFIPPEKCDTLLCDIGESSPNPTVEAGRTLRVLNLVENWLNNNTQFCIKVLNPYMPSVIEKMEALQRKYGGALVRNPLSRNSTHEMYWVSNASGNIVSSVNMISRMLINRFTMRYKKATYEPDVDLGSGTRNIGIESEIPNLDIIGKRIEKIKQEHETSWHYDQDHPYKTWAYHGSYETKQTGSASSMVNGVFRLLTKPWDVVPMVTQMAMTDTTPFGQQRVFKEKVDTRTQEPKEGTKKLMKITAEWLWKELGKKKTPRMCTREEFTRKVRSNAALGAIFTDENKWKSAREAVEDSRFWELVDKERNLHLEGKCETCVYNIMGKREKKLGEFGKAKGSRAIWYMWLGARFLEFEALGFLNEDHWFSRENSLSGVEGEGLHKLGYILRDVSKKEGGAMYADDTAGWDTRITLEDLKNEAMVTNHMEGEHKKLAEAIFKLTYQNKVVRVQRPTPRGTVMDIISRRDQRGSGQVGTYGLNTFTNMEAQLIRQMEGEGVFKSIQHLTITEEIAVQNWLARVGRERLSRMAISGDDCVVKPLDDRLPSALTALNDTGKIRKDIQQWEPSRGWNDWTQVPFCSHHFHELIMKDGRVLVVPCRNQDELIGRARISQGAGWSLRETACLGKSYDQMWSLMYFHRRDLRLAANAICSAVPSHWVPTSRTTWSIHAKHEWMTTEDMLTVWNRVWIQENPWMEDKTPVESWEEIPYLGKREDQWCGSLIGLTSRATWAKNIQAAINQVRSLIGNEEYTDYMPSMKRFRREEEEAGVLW
Neurotensin receptor type 1, sequence (P30989 whole entry): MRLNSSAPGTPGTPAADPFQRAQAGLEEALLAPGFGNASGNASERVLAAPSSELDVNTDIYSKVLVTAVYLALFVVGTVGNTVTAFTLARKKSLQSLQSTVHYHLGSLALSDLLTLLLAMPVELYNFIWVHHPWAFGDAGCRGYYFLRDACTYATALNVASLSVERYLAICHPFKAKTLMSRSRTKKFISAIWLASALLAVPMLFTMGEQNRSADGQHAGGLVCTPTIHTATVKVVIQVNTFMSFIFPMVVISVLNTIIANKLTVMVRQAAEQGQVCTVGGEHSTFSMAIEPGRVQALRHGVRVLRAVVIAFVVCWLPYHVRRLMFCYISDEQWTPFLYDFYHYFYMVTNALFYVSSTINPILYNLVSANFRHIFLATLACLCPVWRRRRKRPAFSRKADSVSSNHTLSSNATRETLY
Intestinal-type alkaline phosphatase, sequence (P09923 whole entry): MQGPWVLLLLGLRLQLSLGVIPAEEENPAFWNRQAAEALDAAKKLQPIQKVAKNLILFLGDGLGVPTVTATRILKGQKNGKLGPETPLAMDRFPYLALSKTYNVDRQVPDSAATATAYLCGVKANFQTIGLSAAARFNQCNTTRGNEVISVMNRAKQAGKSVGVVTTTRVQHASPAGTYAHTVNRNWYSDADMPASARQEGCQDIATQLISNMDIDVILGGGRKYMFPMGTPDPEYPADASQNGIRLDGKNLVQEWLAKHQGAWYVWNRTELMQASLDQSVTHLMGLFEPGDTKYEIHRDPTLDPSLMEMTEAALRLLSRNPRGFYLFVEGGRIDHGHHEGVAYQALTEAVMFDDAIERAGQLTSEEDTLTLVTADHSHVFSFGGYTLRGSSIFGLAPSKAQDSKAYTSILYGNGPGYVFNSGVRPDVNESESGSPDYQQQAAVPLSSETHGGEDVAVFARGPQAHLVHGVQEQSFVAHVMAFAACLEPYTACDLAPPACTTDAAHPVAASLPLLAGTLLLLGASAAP

## Cc1ccc(C(=O)c2no[n+]([O-])c2C(=O)c2ccc(C)cc2)cc1
[1]
  IC50: > 100 µM (active)
[2]
  AC50: 2.37 µM (active)
[3]
  AC50: 16.7 µM (active)
[4]
  EC50: 2.92 µM (active)
[5]
  EC50: 3.01 µM (active)

## Cc1ccc(NCc2ccc([N+](=O)[O-])s2)cc1
[6]
  IC50: > 100 µM (inactive)
[7]
  AC50: > 195 µM (inactive)

## CCOC(=O)C1Nc2c(O)cccc2C2C=CCC12 (stereo unspecified)
[8]
  IC50: > 100 µM (inactive)
[9]
  IC50: > 100 µM (inactive)
[10]
  IC50: > 100 µM (not active)
[11]
  IC50: > 100 µM (not active)

## O=C(Nc1ccc(N2CCN(C(=O)c3ccccc3)CC2)cc1)c1cc2ccccc2o1
[12]
  EC50: 24.4 µM (inactive)
[13]
  AC50: 16.8 µM (active)
[14]
  AC50: 5.93 µM (active)
[15]
  AC50: 45.5 µM (active)
[16]
  AC50: 5.12 µM (active)

## Cc1ccc(/C=C/c2ccc(=O)n(Cc3ccccc3Cl)n2)cc1
[17]
  EC50: 10.7 µM (active)
[18]
  EC50: > 50 µM (not active)
[19]
  EC50: 10.2 µM (active)
[20]
  EC50: 6.69 µM (active)

## Cc1ccccc1CC1(CO)CCCN(C(=O)c2cc(Cl)ccc2F)C1 (stereo unspecified)
[21]
  IC50: > 14.6 µM (not active)
